The source made the active and inactive calls.
Assays:
[1] = target: T1, Heat shock factor protein 1 (Mus musculus, UniProt P38532); test: inhibition of MG132-induced HSE-luciferase signal, confirmation, cell-based, NIH3T3, luminescence, dose retest (AID 2382); assay type: functional;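 note: NIH3T3 fibroblasts with HSF1-driven luciferase reporter stressed by proteasome inhibitor MG132; luminescence from HSF1-driven luciferase expression after 8 hours of MG132 stress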
T1 sequence (P38532 whole entry): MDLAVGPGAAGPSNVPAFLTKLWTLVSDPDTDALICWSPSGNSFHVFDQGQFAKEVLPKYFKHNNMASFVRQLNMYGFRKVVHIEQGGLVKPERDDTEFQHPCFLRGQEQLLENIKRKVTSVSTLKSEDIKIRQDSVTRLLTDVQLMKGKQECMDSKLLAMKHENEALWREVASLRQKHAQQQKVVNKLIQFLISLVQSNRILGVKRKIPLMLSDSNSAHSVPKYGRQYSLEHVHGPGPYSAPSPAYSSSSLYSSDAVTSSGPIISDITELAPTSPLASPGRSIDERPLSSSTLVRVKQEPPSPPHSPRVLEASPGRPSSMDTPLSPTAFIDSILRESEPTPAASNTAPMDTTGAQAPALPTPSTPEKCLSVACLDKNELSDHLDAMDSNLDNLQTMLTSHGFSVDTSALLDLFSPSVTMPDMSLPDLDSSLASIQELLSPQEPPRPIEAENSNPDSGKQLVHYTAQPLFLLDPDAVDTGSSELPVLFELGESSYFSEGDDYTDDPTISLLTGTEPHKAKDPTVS

Genome polyprotein = Genome polyprotein (dengue virus type 2, UniProt P29990); test: Dengue-2 NS5 methyltransferase inhibitors, primary screen, biochemical, confirmation dose response (AID 588689); assay type: functional
ORF 73 = ORF 73 (Human herpesvirus 8, UniProt O40947); test: inhibitors of C-LANA binding to LBS DNA, dose response, biochemical, fluorescence polarization, cherry-picked samples (AID 504725); set-up: species or system Human gammaherpesvirus 8;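 note: fluorescence polarization of a labeled DNA duplex reporting LANA DNA binding; potency is for inhibitors that block LANA binding to the DNA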
[2] = target: Heat shock protein HSP 90-alpha (Homo sapiens, UniProt P07900); assay type: functional, organism-based
[3] = target: T2, Alkaline phosphatase, tissue-nonspecific isozyme (Homo sapiens, UniProt P05186); test: TNAP enzyme inhibition by screening hits, dose response, selectivity assay for mouse IAP inhibitor project, biochemical, human TNAP, uHTS hits (AID 488906); assay type: functional
T2 sequence (P05186 whole entry): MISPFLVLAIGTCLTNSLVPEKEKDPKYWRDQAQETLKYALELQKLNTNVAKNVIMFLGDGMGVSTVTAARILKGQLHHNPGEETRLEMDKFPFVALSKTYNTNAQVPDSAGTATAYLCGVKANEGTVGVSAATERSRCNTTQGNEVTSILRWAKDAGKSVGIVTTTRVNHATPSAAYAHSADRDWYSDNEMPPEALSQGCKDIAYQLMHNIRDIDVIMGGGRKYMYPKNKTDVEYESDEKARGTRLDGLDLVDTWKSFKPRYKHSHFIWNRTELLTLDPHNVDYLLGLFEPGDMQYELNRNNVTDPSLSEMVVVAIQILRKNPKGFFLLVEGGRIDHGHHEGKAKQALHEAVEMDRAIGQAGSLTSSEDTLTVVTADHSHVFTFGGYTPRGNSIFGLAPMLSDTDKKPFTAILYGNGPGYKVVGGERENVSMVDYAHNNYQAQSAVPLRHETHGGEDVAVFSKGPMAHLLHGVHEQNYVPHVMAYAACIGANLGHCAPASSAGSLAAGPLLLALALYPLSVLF

SUMO-activating enzyme [4] = target: T3, SUMO-activating enzyme (Homo sapiens, UniProt Q9UBT2); test: SUMOylation inhibitor hit validation, confirmation, SUMOylation inhibitor project, biochemical, AlphaScreen (AID 2018); assay type: functional
Prothrombin = Prothrombin (Bos taurus, UniProt P00735); test: thrombin inhibition, dose response, biochemical, fluorescence polarization, uHTS hits (AID 602369); assay type: functional
[5] = target: 72 kDa type IV collagenase (Homo sapiens, UniProt P08253); test: Dose Response validation of uHTS RPN11 inhibitor hits using a MMP-2 Fluorescence assay.; assay type: functional
SUMO-activating enzyme [6] = target: T3, SUMO-activating enzyme; test: inhibitors of in vitro SUMOylation cascade, primary screen, biochemical, HTRF, uHTS (AID 2006); assay type: protein-complex assay
[7] = target: 26S proteasome non-ATPase regulatory subunit 14 (Homo sapiens, UniProt O00487); test: inhibition of proteasome subunit RPN11 – biochemical, fluorescence polarization, uHTS hits, confirmation (AID 602368); assay type: functional
[8] = target: Intestinal-type alkaline phosphatase (Homo sapiens, UniProt P09923); test: inhibition of human intestinal alkaline phosphatase – biochemical, dose response (AID 488876); assay type: functional
[9] = target: T4, Tyrosyl-DNA phosphodiesterase 2 (Homo sapiens, UniProt O95551); test: human TDP2 enzyme inhibitors, dose response, biochemical, epi absorbance, IC50 (AID 743297)
T4 sequence (O95551 whole entry): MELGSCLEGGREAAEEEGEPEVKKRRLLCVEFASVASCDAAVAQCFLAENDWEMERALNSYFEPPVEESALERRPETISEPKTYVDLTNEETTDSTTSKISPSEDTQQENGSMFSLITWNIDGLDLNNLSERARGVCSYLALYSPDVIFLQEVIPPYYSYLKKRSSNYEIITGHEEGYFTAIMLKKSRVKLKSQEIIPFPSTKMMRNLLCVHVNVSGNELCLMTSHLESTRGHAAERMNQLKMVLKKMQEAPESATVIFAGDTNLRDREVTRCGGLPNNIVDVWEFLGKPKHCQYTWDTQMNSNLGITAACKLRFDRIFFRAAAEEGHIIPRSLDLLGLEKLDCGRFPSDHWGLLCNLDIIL

Phospholipase A2 = Phospholipase A2 (Homo sapiens, UniProt P04054); assay type: functional;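 note: confirmatory dose-response counterscreen on phospholipase A2, testing hits that came from an ultra-high-throughput screen for ATG4B inhibitors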
[10] = target: DNA (cytosine-5)-methyltransferase 1 (Homo sapiens, UniProt P26358); test: DNMT1 methyltransferase inhibitors, confirmation, biochemical, fluorescent molecular beacon (AID 602386); assay type: functional
[11] = target: T5, Histone-lysine N-methyltransferase NSD2 (Homo sapiens, UniProt O96028); assay type: biochemical
T5 sequence (O96028 whole entry): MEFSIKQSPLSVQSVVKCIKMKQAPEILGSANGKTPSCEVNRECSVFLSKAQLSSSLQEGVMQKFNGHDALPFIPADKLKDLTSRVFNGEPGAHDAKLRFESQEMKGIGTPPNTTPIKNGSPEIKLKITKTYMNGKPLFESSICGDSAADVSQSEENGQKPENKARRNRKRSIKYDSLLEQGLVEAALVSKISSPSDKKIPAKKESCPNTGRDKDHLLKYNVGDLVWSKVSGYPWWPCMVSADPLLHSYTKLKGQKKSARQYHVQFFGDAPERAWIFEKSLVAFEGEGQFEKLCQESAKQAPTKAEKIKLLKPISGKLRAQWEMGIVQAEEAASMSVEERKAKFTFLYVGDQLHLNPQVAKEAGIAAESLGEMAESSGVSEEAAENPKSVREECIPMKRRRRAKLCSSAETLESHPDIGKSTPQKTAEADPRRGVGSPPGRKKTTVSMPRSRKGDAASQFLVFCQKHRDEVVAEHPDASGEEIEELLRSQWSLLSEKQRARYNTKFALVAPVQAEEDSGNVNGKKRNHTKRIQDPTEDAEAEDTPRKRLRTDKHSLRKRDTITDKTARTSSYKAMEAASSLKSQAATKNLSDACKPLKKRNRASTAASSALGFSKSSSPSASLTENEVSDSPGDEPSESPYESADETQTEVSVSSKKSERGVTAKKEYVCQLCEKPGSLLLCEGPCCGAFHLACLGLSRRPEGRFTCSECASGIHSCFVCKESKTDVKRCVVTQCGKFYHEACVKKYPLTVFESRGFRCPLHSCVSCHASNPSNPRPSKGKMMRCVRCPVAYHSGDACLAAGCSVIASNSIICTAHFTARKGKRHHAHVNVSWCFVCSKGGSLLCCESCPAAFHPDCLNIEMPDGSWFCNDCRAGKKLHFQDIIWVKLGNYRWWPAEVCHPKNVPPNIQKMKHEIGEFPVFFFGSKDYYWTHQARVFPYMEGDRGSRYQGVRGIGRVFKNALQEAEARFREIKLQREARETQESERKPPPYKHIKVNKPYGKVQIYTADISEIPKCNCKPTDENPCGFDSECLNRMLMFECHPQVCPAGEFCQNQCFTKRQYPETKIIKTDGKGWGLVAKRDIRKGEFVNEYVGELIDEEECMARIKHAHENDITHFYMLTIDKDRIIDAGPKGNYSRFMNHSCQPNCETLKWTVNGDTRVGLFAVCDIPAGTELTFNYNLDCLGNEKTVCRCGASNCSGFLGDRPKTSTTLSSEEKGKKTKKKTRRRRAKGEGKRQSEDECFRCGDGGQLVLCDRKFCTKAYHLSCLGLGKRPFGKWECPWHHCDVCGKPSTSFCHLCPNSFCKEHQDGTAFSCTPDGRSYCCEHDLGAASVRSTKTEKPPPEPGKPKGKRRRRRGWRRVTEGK

Keap1/Nrf2 = Keap1/Nrf2 (Homo sapiens, UniProt Q14145); test: Keap1-Nrf2 protein-protein interaction inhibitors, dose response, biochemical, fluorescence polarization, cherry-picked samples (AID 588683)
[12] = target: Intestinal-type alkaline phosphatase (Mus musculus, UniProt P24822); test: PubChem AID 488785; assay type: functional
Cysteine protease ATG4B = target: T6, Cysteine protease ATG4B (Homo sapiens, UniProt Q9Y4P1); assay type: functional;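 note: Fluorescence-based dose-response confirmation assay measuring inhibition of ATG4B activity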
T6 sequence (Q9Y4P1 whole entry): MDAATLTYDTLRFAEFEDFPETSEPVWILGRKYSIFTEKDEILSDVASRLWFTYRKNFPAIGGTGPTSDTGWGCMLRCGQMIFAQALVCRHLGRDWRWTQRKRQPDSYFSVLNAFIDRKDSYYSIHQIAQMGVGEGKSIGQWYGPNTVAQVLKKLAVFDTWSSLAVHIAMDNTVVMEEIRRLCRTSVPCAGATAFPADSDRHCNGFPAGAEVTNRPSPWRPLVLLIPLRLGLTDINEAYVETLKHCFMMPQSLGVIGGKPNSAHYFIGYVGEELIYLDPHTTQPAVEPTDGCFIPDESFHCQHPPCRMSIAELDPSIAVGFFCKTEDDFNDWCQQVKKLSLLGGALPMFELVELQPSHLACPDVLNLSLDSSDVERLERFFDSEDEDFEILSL

Beta-lactamase [13] = target: Beta-lactamase (Salmonella choleraesuis (strain SC-B67), UniProt Q5J463)
[14] = target: Voltage-dependent T-type calcium channel subunit alpha-1H (Homo sapiens, UniProt O95180); assay type: functional;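 note: channel activity triggered by adding a high calcium stimulation buffer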
[15] = target: T7, Zinc finger protein mex-5 (Caenorhabditis elegans, UniProt Q9XUB2); test: MEX-5/TCR-2 RNA interaction inhibitors, dose response, biochemical, C. elegans, fluorescence polarization (AID 1960)
T7 sequence (Q9XUB2 whole entry): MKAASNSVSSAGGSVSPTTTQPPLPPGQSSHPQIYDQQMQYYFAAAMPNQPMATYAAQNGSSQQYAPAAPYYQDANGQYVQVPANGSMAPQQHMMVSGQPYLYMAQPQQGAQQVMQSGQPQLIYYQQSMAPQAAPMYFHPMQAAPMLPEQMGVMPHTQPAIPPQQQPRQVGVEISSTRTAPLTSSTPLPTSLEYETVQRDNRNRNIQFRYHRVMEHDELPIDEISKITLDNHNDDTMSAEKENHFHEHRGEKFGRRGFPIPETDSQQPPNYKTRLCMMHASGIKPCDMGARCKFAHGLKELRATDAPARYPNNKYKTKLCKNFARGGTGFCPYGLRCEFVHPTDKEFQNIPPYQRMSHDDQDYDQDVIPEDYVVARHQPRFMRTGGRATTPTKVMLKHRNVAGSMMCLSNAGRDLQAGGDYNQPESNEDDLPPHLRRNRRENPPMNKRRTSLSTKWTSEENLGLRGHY

[16] = target: T8, RNA-binding protein pos-1 (Caenorhabditis elegans, UniProt G5EF15); test: inhibitors of POS-1/mex-3 RNA binding, dose response, biochemical, fluorescence polarization (AID 1964);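 note: purified POS-1 fused to maltose binding protein made in E. coli; potency of compounds blocking POS-1 binding to fluorescent RNA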
T8 sequence (G5EF15 whole entry): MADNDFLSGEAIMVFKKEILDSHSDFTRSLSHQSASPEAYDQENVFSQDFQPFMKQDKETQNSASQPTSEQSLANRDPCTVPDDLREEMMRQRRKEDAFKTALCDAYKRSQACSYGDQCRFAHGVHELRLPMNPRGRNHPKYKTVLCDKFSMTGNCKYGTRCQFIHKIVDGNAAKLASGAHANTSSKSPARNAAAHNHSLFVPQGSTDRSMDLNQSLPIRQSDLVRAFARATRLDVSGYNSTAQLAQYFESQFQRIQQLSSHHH

Beta-lactamase [17] = target: Beta-lactamase (Pseudomonas aeruginosa, UniProt Q79MP6);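 note: biochemical dose-response test of metallo-beta-lactamase enzyme inhibition, read out by epi-absorbance; purified recombinant IMP-1 metallo-beta-lactamase with nitrocefin as substrate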
[18] = target: DNA dC->dU-editing enzyme APOBEC-3A (Homo sapiens, UniProt P31941); test: APOBEC3A DNA deaminase inhibitors, dose response, biochemical (AID 504722); assay type: functional
[19] = target: DNA dC->dU-editing enzyme APOBEC-3G (Homo sapiens, UniProt Q9HC16); test: Dose Response confirmation of small molecule APOBEC3G DNA Deaminase Inhibitors via a fluorescence-based single-stranded DNA deaminase assay. [Related pubchem assays (depositor defined):AID493012, AID493028]; assay type: functional
Sequence of DNA dC->dU-editing enzyme APOBEC-3G (Q9HC16 whole entry): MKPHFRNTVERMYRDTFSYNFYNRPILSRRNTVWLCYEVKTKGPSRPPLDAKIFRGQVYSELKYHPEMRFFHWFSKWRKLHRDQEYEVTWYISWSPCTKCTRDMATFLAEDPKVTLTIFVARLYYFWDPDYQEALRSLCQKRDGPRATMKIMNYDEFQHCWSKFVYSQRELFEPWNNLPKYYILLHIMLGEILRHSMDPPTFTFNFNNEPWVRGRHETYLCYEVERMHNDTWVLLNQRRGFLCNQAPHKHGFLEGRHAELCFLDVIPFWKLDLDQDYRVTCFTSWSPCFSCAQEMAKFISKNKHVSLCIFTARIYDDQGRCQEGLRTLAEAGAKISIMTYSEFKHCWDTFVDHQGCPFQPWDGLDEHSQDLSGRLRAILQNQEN

Sequence of ORF 73 (O40947 whole entry): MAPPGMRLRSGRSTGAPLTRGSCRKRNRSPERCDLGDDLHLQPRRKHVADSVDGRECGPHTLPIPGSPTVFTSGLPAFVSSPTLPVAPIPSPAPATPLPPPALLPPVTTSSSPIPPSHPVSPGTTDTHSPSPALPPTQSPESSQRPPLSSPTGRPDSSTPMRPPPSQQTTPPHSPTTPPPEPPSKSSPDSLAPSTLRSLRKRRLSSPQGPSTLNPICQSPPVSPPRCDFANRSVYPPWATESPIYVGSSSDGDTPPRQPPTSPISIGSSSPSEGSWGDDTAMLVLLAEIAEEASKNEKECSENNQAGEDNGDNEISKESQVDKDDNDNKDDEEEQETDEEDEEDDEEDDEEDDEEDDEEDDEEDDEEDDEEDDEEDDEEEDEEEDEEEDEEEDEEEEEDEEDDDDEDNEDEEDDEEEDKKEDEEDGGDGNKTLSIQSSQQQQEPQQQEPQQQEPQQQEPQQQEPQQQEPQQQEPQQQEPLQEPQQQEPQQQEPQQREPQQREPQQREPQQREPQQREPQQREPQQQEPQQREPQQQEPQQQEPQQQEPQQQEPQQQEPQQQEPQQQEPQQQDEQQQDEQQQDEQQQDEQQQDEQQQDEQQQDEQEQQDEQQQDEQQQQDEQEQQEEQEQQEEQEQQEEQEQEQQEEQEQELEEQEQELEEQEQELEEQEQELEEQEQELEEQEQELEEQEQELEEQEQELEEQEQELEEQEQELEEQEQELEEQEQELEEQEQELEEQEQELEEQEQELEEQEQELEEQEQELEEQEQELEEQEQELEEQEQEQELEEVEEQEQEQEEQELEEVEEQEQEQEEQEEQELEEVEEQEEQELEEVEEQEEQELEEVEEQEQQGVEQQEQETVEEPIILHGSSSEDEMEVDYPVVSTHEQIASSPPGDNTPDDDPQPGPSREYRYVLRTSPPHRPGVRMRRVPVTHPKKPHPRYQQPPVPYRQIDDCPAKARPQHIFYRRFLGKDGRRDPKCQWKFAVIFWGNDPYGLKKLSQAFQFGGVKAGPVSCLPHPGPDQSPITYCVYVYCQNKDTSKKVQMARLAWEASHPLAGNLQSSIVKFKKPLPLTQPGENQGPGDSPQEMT
Sequence of Keap1/Nrf2 (Q16236 whole entry): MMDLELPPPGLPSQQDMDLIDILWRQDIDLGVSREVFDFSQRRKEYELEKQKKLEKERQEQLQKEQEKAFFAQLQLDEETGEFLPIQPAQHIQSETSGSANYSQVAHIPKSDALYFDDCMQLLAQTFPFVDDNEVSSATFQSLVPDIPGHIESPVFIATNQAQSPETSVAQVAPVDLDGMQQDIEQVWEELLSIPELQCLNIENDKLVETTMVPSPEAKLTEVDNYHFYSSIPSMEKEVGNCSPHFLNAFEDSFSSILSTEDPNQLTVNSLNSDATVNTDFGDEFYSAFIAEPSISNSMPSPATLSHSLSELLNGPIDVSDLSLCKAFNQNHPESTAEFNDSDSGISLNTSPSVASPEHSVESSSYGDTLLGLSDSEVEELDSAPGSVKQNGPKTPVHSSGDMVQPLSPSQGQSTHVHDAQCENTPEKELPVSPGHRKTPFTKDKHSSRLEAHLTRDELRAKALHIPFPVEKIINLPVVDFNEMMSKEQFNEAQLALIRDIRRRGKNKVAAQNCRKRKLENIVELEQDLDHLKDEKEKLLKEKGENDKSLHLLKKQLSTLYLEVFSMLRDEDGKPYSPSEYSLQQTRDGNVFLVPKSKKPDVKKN
Sequence of Keap1/Nrf2 (Q14145 whole entry): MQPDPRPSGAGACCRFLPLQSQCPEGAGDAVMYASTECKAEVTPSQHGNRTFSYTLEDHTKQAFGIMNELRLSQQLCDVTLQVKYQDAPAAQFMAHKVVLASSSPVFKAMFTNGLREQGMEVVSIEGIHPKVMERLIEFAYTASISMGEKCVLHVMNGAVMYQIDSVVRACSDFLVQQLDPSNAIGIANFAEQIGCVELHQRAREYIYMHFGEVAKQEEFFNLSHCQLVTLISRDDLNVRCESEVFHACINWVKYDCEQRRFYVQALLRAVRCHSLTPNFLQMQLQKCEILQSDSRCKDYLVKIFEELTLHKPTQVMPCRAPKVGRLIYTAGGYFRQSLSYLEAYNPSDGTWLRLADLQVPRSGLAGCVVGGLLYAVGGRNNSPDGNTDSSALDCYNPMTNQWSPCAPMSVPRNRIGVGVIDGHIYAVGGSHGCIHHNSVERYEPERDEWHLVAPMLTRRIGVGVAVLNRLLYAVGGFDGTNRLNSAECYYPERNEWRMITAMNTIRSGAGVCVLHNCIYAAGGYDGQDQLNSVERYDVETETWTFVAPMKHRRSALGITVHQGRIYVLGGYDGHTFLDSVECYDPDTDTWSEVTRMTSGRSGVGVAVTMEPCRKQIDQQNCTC
T3 sequence (Q9UBE0 whole entry): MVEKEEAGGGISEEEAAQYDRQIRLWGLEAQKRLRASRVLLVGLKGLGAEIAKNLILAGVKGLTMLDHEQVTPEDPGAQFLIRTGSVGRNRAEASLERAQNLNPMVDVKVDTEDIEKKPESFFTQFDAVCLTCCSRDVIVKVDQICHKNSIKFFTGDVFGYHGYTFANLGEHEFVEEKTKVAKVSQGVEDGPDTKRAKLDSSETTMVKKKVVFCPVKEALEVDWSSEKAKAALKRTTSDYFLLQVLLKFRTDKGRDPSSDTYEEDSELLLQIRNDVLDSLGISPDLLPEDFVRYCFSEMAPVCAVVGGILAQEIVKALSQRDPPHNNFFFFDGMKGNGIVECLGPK
T3 sequence (Q9UBT2 whole entry): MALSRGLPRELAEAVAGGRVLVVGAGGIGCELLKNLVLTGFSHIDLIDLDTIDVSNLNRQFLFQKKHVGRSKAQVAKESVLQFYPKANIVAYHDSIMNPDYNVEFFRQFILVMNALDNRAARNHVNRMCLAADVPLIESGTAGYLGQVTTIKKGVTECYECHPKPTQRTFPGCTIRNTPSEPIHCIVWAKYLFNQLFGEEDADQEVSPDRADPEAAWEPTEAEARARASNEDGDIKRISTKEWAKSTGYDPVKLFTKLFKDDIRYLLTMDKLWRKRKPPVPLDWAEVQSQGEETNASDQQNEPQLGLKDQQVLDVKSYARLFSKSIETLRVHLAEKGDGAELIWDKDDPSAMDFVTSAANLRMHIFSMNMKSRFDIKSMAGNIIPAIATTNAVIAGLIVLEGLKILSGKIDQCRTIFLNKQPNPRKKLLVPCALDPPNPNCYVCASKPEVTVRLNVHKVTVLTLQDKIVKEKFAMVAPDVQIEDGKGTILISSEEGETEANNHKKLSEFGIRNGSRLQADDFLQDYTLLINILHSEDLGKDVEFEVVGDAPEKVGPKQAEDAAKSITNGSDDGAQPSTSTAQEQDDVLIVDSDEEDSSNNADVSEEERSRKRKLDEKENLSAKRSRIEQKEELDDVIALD
Sequence of 26S proteasome non-ATPase regulatory subunit 14 (O00487 whole entry): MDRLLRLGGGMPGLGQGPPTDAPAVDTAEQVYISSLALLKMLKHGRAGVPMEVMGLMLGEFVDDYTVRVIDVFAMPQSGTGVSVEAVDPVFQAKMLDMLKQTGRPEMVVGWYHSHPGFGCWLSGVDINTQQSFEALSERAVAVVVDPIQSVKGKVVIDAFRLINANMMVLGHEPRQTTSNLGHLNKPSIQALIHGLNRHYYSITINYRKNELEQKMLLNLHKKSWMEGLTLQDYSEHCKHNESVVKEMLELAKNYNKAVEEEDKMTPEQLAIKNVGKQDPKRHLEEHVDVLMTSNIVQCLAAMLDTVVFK
Sequence of 72 kDa type IV collagenase (P08253 whole entry): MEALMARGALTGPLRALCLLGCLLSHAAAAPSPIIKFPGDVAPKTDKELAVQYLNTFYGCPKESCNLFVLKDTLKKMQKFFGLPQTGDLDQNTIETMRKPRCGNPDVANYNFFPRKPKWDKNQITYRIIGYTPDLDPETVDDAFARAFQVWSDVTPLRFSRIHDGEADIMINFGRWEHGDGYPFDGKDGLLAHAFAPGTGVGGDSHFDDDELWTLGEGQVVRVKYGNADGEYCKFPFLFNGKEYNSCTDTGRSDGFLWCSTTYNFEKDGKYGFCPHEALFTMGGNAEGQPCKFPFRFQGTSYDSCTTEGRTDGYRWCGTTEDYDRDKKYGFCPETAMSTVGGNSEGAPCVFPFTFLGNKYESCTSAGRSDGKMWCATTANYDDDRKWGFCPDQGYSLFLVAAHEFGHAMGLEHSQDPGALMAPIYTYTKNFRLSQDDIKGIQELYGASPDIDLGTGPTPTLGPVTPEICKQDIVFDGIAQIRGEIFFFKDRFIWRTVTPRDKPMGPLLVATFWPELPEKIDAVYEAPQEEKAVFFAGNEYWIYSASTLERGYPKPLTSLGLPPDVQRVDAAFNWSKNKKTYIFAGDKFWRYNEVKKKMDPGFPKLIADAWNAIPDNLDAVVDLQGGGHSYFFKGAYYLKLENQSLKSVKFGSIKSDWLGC
Sequence of Beta-lactamase (Salmonella choleraesuis (strain SC-B67), UniProt Q5J463) (Q5J463 whole entry): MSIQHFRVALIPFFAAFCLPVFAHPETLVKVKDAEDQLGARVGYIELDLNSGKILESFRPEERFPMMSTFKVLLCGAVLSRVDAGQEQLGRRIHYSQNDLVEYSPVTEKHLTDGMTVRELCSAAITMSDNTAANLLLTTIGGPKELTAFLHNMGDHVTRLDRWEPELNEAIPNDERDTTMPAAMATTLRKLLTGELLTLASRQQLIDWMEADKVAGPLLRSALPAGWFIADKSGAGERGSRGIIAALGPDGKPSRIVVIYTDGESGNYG

COc1ccc(OC)c(N2C(=O)NC(=O)/C(=C\c3ccc([N+](=O)[O-])s3)C2=O)c1
EC50 [1]: > 195 µM (not active)
IC50 (Genome polyprotein): 39.9 µM (active)
AC50 (ORF 73): 90.7 µM (active)
AC50 [2]: 4.17 µM (active)

COc1cc(NS(=O)(=O)c2ccc(NC(=S)NC(=O)/C=C/c3ccco3)cc2)ncn1
IC50 [3]: 45.9 µM (active)
IC50 (SUMO-activating enzyme [4]): 2.41 µM (active)
IC50 (Prothrombin): 20.5 µM (active)
IC50 [5]: 2.15 µM (active)
IC50 (SUMO-activating enzyme [6]): 26.1 µM (active)
IC50 [7]: 12.9 µM (active)
IC50 [8]: > 100 µM (inactive)
IC50 [9]: 30.4 µM (inactive)
IC50 (Phospholipase A2): > 80 µM (inactive)
IC50 [10]: 2.92 µM (active)
AC50 [11]: 13.2 µM (active)
AC50 (Keap1/Nrf2): > 52 µM (inactive)
IC50 [12]: 18.4 µM (active)
IC50 (Cysteine protease ATG4B): 6 µM (active)

Cc1n[nH]c(C)c1N1C(=O)c2cccc3c(N4CCCCCC4)ccc(c23)C1=O
AC50 (ORF 73): > 350 µM (inactive)
IC50 (Beta-lactamase [13]): 27.8 µM (inactive)
EC50 [14]: 1.04 µM (active)
EC50 [15]: 1.72 µM (inconclusive)
EC50 [16]: 6.94 µM (inconclusive)
IC50 (Beta-lactamase [17]): > 59.6 µM (inactive)
AC50 (Keap1/Nrf2): 32.5 µM (active)

Sc1nnc(COc2ccccc2)n1/N=C/c1ccccn1
IC50 [18]: > 100 µM (inactive)
IC50 [19]: 3.99 µM (active)

Source: ChEMBL document CHEMBL1201862, “PubChem BioAssay data set” (2004)
